The IC50 is the concentration at which inhibition is half-maximal. Low readings indicate greater potency, high ones weaker potency.

One data set concerns HIV-1. As to the kind of experiment: Inhibition of HIV replication in PHA/IL2 stimulated PBMC's (p24 antigen in culture supernatants). It counts as cell-based. How it is done: FIG. 1—Gallium Nitrate and Hydroxyurea Inhibition of HIV-1 Replication. PHA/IL-2 stimulated human PBMC's (1×10^6), and MT-2 cells (1×10^6) were grown and maintained in RPMI 1640 media containing 20% fetal calf sera, glutamine and antibiotics (Thelander & Reichard, 1979). Experiments were carried out in duplicate, and experiments repeated a minimum of three times. Gallium nitrate (Ga) was obtained from the National Cancer Institute. Hydroxyurea (HU) was obtained from Sigma Chemicals (St. Louis, Mo.). Ga and HU were added to PBMC's 24 hrs prior to infection, and cells were washed 16 hrs post-infection. Culture supernatants were obtained 4 and 7 days post-infection for p24 antigen measurement.
(§1) Various concentrations of Ga or HU were added to PHA/IL2 stimulated PBMC's 24 hours prior to infection with HIV. Following infection, cells were washed and culture supernatants were obtained 4 and 7 days post-infection.
HIV (Catalog# 1073, NIH AIDS Reference Program) was used in these studies. […] Viral replication was measured by determining the concentration of p24 antigen in culture supernatants (Organon-Teknika), and by visually observing a reduction in syncytia formation (Cook et al., 1997). In addition, a quantitative measurement of syncytia induction—inhibition was employed (described below). […]

For another data set, the system named is PBMC. The data set is described as follows: Effects on PBMC proliferation and viability (Trypan blue staining and counting). To be noted: 48 hrs. It counts as cell-based, human. Here is the method:
FIG. 4—Effects of Gallium Nitrate on PBMC Proliferation and Viability. Experiments were carried out in duplicate, and experiments repeated a minimum of three times. Gallium nitrate (Ga) was obtained from the National Cancer Institute. Cells were incubated in Ga at concentrations noted, and were stained at 48 hrs with Trypan blue and counted.
as §1

The test system of the next data set is HIV. To be noted: results of U.S. Pat. No. 5,525,598; cited from earlier work.

`NC(=O)NO` [HU, Hydroxyurea] registered an IC50 in the data set with HIV-1 (Human immunodeficiency virus 1, PHA/IL2 stimulated PBMC's, added 24 hours prior to infection, supernatants 4 and 7 days post-infection) of 120 µM. Turning to `O=[N+]([O-])[O-].O=[N+]([O-])[O-].O=[N+]([O-])[O-].[Ga+3]` [Ga, Gallium nitrate], the “effect on cellular proliferation or viability at concentrations inhibiting HIV replication” value in the data set on PBMC was “did not inhibit cellular proliferation or viability”. The “fold lower IC50 of Ga than HU” value in the data set with HIV-1 (present culture system) is reported as “approximately 15 fold”. Consider `Cc1cn([C@H]2C[C@H](N=[N+]=[N-])[C@@H](CO)O2)c(=O)[nH]c1=O` [3′-azido-2,3′-deoxythymidine], for which the therapeutic index with HIV was 3680.

(Values after US20020160055A1, “Methods for treating human immunodeficiency virus infections with gallium compositions” (priority 2000, published 2002).)
